Data reported in ChEMBL document CHEMBL4417631, “Oral peptide inhibitors of interleukin-23 receptor and their use to treat inflammatory bowel diseases” (2017).
Where a SMILES comes first, the peptide text is derived from it. [ ]: non-standard residue; d: D form. hLeu = CC(C)CC[C@H](N)C(=O)O

Molecular target: T1, Interleukin-23 receptor (Homo sapiens, UniProt Q5VWK5)
T1 sequence (Q5VWK5 whole entry): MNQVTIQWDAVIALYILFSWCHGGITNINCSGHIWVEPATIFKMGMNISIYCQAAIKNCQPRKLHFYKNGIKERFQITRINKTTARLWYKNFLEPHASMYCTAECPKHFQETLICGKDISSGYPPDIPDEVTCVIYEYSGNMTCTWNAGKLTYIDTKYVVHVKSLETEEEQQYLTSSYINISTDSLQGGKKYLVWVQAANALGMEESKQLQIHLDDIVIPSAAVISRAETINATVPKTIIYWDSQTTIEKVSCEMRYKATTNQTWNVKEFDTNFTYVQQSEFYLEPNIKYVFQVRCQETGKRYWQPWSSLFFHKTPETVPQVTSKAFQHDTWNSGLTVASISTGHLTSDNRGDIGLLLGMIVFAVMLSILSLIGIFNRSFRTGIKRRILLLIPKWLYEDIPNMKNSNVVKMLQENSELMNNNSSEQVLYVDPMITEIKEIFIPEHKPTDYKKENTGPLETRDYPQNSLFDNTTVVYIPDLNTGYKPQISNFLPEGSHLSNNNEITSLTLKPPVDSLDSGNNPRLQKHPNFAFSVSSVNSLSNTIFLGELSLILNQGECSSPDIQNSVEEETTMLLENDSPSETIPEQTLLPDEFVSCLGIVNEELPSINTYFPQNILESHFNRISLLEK
Assay: Inhibition of interleukin-23 binding to human interleukin-23 receptor incubated for 2 hrs by competitive binding ELISA

Structure (SMILES) | IC50 [nM]
CC(=O)N[C@@H](CS)C(=O)N[C@@H](CCC(N)=O)C(=O)N[C@H](C(=O)N[C@@H](Cc1c[nH]c2ccccc12)C(=O)N[C@@H](CCC(N)=O)C(=O)N[C@@H](CS)C(=O)N[C@@H](Cc1ccc(O)cc1)C(=O)N[C@@H](Cc1c[nH]c2ccccc12)C(=O)N[C@@H](CC1CCCC1)C(=O)N[C@@H](CCC(=O)O)C(=O)N[C@@H](CC(N)=O)C(=O)NCC(=O)NCCOCC(=O)N[C@H](CCCCN)C(N)=O)[C@@H](C)O | < 500
CC(=O)N[C@@H](CS)C(=O)N[C@@H](C)C(=O)N[C@H](C(=O)N[C@@H](Cc1c[nH]c2ccccc12)C(=O)N[C@H](C(=O)N[C@@H](CS)C(=O)N[C@@H](Cc1ccc(O)cc1)C(=O)N[C@@H](Cc1c[nH]c2ccccc12)C(=O)N[C@@H](Cc1cnc[nH]1)C(=O)N[C@H](C(=O)N[C@@H](Cc1ccccc1)C(=O)NCC(N)=O)[C@@H](C)O)C(C)C)[C@@H](C)O | > 1000
CC(=O)N[C@@H](CS)C(=O)N[C@@H](C)C(=O)N[C@@H](CC(=O)O)C(=O)N[C@@H](Cc1c[nH]c2ccccc12)C(=O)N[C@H](C(=O)N[C@@H](CS)C(=O)N[C@@H](Cc1ccc(O)cc1)C(=O)N[C@@H](Cc1c[nH]c2ccccc12)C(=O)N[C@@H](Cc1cnc[nH]1)C(=O)N[C@@H](CCCNC(=N)N)C(=O)N[C@@H](Cc1cnc[nH]1)C(=O)N[C@@H](C)C(=O)N[C@@H](CC(=O)O)C(=O)N[C@@H](CCCNC(=N)N)C(=O)N[C@H](C(=O)N[C@@H](CCCCN)C(N)=O)C(C)C)C(C)C (Ac-CADWVCYWHRHADRVK-NH2) | < 500
CC(C)[C@H](NC(=O)[C@H](Cc1c[nH]c2ccccc12)NC(=O)[C@@H](NC(=O)[C@H](Cc1cnc[nH]1)NC(=O)[C@@H](N)CS)[C@@H](C)O)C(=O)N[C@@H](CS)C(=O)N[C@@H](Cc1ccc(O)cc1)C(=O)N[C@@H](Cc1c[nH]c2ccccc12)C(=O)N[C@@H](Cc1cnc[nH]1)C(=O)N[C@@H](CCC(=O)O)C(=O)N[C@@H](Cc1ccccc1)C(=O)N[C@@H](CO)C(N)=O (H-CHTWVCYWHEFS-NH2) | > 1000
CC(=O)N[C@@H](CS)C(=O)N[C@@H](C)C(=O)N[C@@H](CC(=O)O)C(=O)N[C@@H](Cc1c[nH]c2ccccc12)C(=O)N[C@H](C(=O)N[C@@H](CS)C(=O)N[C@@H](Cc1ccc(O)cc1)C(=O)N[C@@H](Cc1cccc2ccccc12)C(=O)N[C@@H](Cc1cnc[nH]1)C(=O)N[C@H](C(=O)N[C@@H](Cc1ccccc1)C(=O)NC(C)(C)C(N)=O)[C@@H](C)O)C(C)C | > 1000
CC(=O)NC1CCC/C=C\CC(C(=O)N[C@@H](Cc2ccc(O)cc2)C(=O)N[C@@H](Cc2c[nH]c3ccccc23)C(=O)N[C@@H](CCCNC(=N)N)C(=O)N[C@@H](CCCCN)C(=O)N[C@@H](Cc2ccccc2)C(=O)NCC(=O)NCCOCC(=O)N[C@H](CCCCN)C(N)=O)NC(=O)[C@H](CCC(N)=O)NC(=O)[C@H](Cc2c[nH]c3ccccc23)NC(=O)[C@H]([C@@H](C)O)NC(=O)[C@H](CCCNC(=N)N)NC1=O (stereo not given in full) | 100 to 1000
CC(=O)N[C@@H](CS)C(=O)N[C@@H](CCCNC(=N)N)C(=O)N[C@H](C(=O)N[C@@H](Cc1c[nH]c2ccccc12)C(=O)N[C@@H](CCC(N)=O)C(=O)N[C@@H](CS)C(=O)N[C@@H](Cc1ccc(O)cc1)C(=O)N[C@@H](Cc1c[nH]c2ccccc12)C(=O)N[C@@H](CCCNC(=N)N)C(=O)N[C@@H](CCCCN)C(=O)N[C@@H](Cc1ccccc1)C(=O)NCC(=O)NCCOCC(=O)N[C@H](CCCCN)C(N)=O)[C@@H](C)O | < 500
CC(=O)N[C@@H](CS)C(=O)N[C@@H](CCC(N)=O)C(=O)N1CCC[C@H]1C(=O)N[C@@H](Cc1c[nH]c2ccccc12)C(=O)N[C@@H](CCC(N)=O)C(=O)N[C@@H](CS)C(=O)N[C@@H](Cc1ccc(O)cc1)C(=O)N[C@@H](Cc1c[nH]c2ccccc12)C(=O)N[C@@H](CCC(C)C)C(=O)N[C@@H](CCC(=O)O)C(=O)N[C@@H](CC(N)=O)C(=O)NCC(N)=O (Ac-CQPWQCYW[hLeu]ENG-NH2) | > 10000
CC(=O)N[C@@H](CS)C(=O)N[C@@H](C)C(=O)N[C@@H](CC(=O)O)C(=O)N[C@@H](Cc1c[nH]c2ccccc12)C(=O)N[C@H](C(=O)N[C@@H](CS)C(=O)N[C@@H](Cc1ccc(O)cc1)C(=O)N[C@@H](Cc1c[nH]c2ccccc12)C(=O)N[C@@H](Cc1cnc[nH]1)C(=O)N[C@H](C(=O)N[C@@H](Cc1ccccc1)C(=O)NCC(=O)NCCOCC(=O)N[C@H](CCCCN)C(=O)O)[C@@H](C)O)C(C)C | < 500
CC(=O)N[C@@H](CS)C(=O)N[C@@H](C)C(=O)N[C@@H](CC(=O)O)C(=O)N[C@@H](Cc1c[nH]c2ccccc12)C(=O)N[C@@H](CCC(=O)O)C(=O)N[C@@H](CS)C(=O)N[C@@H](Cc1ccc(O)cc1)C(=O)N[C@@H](Cc1c[nH]c2ccccc12)C(=O)N[C@@H](Cc1cnc[nH]1)C(=O)N[C@H](C(=O)N[C@@H](Cc1ccccc1)C(=O)NCC(N)=O)[C@@H](C)O | > 1000
CC(=O)N[C@@H](CS)C(=O)N[C@@H](CCC(N)=O)C(=O)N[C@H](C(=O)N[C@@H](Cc1c[nH]c2ccccc12)C(=O)N[C@@H](CCC(N)=O)C(=O)N[C@@H](CS)C(=O)N[C@@H](Cc1ccc(O)cc1)C(=O)N[C@@H](Cc1c[nH]c2ccccc12)C(=O)N(C)[C@@H](CCC(=O)O)C(=O)N[C@@H](CC(N)=O)C(=O)NCC(=O)NCCOCC(=O)N[C@H](CCCCN)C(=O)O)[C@@H](C)O | > 1000
CC(=O)N[C@@H](CS)C(=O)N(C)[C@@H](CCCCN)C(=O)N[C@H](C(=O)N[C@@H](Cc1c[nH]c2ccccc12)C(=O)N[C@@H](CCC(N)=O)C(=O)N[C@@H](CS)C(=O)N[C@@H](Cc1ccc(O)cc1)C(=O)N[C@@H](Cc1c[nH]c2ccccc12)C(=O)N[C@@H](CCCNC(=N)N)C(=O)N[C@H](C(=O)N[C@@H](Cc1ccccc1)C(=O)NCC(=O)NCCOCC(=O)N[C@H](CCCCN)C(N)=O)C(C)C)[C@@H](C)O | 80
C[C@H](N)C(=O)N[C@@H](CS)C(=O)N[C@@H](CC(=O)O)C(=O)N[C@@H](Cc1c[nH]c2ccccc12)C(=O)N[C@@H](CS)C(=O)N[C@@H](CS)C(=O)N[C@@H](Cc1ccc(O)cc1)C(=O)N[C@@H](Cc1c[nH]c2ccccc12)C(=O)N[C@@H](CS)C(=O)N[C@H](C(=O)N[C@@H](Cc1ccccc1)C(=O)NCC(N)=O)[C@@H](C)O (H-ACDWCCYWCTFG-NH2) | > 1000
CC(=O)N[C@@H](CS)C(=O)N[C@@H](CCC(N)=O)C(=O)N[C@H](C(=O)N[C@@H](Cc1c[nH]c2ccccc12)C(=O)N[C@@H](CCC(N)=O)C(=O)N[C@@H](CS)C(=O)N[C@@H](Cc1ccc(O)cc1)C(=O)N[C@@](C)(Cc1c[nH]c2ccccc12)C(=O)N[C@@H](CCC(C)C)C(=O)N[C@@H](CCC(=O)O)C(=O)N[C@@H](CCC(N)=O)C(=O)NCC(N)=O)[C@@H](C)O | > 30000
CC(=O)N[C@@H](CS)C(=O)N[C@@H](C)C(=O)N[C@@H](CC(=O)O)C(=O)N[C@@H](Cc1c[nH]c2ccccc12)C(=O)N[C@H](C(=O)N[C@@H](CS)C(=O)N[C@@H](Cc1ccc(O)cc1)C(=O)N[C@@H](Cc1c[nH]c2ccccc12)C(=O)N[C@@H](Cc1cnc[nH]1)C(=O)N[C@H](C(=O)N[C@@H](Cc1ccccc1)C(=O)NCC(=O)N[C@@H](C)C(=O)N[C@@H](C)C(=O)N[C@H](CCCCN)C(=O)O)[C@@H](C)O)C(C)C | < 500
CC(=O)N[C@@H](CS)C(=O)N[C@@H](C)C(=O)N[C@@H](CC(=O)O)C(=O)N[C@@H](Cc1c[nH]c2ccccc12)C(=O)N[C@H](C(=O)N[C@@H](CS)C(=O)N[C@@H](Cc1ccc(O)cc1)C(=O)N[C@@H](Cc1c[nH]c2ccccc12)C(=O)N[C@@H](Cc1cnc[nH]1)C(=O)N[C@H](C(=O)N[C@@H](Cc1ccccc1)C(=O)NCC(=O)NCCCC(=O)N[C@H](CCCCN)C(=O)O)[C@@H](C)O)C(C)C | < 500
C[C@H](NC(=O)[C@@H](N)CS)C(=O)N[C@@H](CC(=O)O)C(=O)N[C@@H](Cc1c[nH]c2ccccc12)C(=O)N(C)CC(=O)N[C@@H](CS)C(=O)N[C@@H](Cc1ccc(O)cc1)C(=O)N[C@@H](Cc1cccc2ccccc12)C(=O)N[C@@H](Cc1cnc[nH]1)C(=O)N[C@H](C(=O)N[C@@H](Cc1ccccc1)C(=O)O)[C@@H](C)O | > 1000
CC[C@H](C)[C@H](NC(=O)[C@H](Cc1cnc[nH]1)NC(=O)[C@H](Cc1c[nH]c2ccccc12)NC(=O)[C@H](Cc1ccc(O)cc1)NC(=O)[C@H](CS)NC(=O)[C@H](CCCCN)NC(=O)[C@H](Cc1c[nH]c2ccccc12)NC(=O)[C@H](CC(=O)O)NC(=O)[C@H](CCCCN)NC(=O)[C@@H](N)CS)C(=O)N[C@@H](Cc1ccc(O)cc1)C(=O)NCC(N)=O (H-CKDWKCYWHIYG-NH2) | > 1000
CC(=O)N[C@@H](CS)C(=O)N[C@@H](C)C(=O)N[C@@H](CC(=O)O)C(=O)N[C@@H](Cc1c[nH]c2ccccc12)C(=O)N[C@H](C(=O)N[C@@H](CS)C(=O)N[C@@H](Cc1ccc(O)cc1)C(=O)N[C@@H](Cc1cccc2ccccc12)C(=O)N[C@H](C(=O)N[C@H](C(=O)N[C@@H](Cc1ccccc1)C(=O)NCC(N)=O)[C@@H](C)O)C(C)C)C(C)C | 500 to 1000
CC(C)[C@H](NC(=O)[C@H](Cc1cnc[nH]1)NC(=O)[C@H](Cc1c[nH]c2ccccc12)NC(=O)[C@H](Cc1ccc(O)cc1)NC(=O)[C@H](CS)NC(=O)[C@@H](NC(=O)[C@H](Cc1c[nH]c2ccccc12)NC(=O)[C@@H](NC(=O)[C@H](CCCNC(=N)N)NC(=O)[C@@H](N)CS)[C@@H](C)O)[C@@H](C)O)C(=O)N[C@@H](Cc1ccc(O)cc1)C(=O)NCC(N)=O (H-CRTWTCYWHVYG-NH2) | 500 to 1000
